For one assay, the target named is T1, Adenosine receptor A1 (Gallus gallus, UniProt P49892).
T1 sequence (P49892 whole entry): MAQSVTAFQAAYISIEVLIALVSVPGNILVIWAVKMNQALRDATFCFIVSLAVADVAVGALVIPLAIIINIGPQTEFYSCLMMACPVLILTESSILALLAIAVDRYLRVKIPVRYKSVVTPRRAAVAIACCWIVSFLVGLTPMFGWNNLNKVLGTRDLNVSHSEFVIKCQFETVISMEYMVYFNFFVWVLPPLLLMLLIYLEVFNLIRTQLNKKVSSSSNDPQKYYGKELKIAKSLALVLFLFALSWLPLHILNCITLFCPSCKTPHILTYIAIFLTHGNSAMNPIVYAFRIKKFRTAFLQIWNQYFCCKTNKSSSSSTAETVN

For a further assay, the target named is T2, Adenosine receptor A3 (Gallus gallus, UniProt A0A8V1ACC1).
T2 sequence (A0A8V1ACC1 whole entry): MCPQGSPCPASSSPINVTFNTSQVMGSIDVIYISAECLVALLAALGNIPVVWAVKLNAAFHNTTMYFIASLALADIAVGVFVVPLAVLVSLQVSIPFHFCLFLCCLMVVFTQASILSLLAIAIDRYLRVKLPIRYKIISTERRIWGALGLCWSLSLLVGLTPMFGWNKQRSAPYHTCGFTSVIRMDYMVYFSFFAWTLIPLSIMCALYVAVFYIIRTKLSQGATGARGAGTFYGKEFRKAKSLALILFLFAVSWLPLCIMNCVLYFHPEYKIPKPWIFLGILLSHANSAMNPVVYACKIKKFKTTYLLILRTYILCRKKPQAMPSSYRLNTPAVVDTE

The structures appear in SMILES notation.

One may read the Ki as the equilibrium dissociation constant of an inhibitor or competing ligand from its target. A high value points to a looser hold on the target.

In the case of `CCCn1c(=O)c2nc[nH]c2n(CCC)c1=O`, the Ki at Adenosine receptor A1 is 11.2 nM; at Adenosine receptor A3, 53.3 nM.

On Adenosine receptor A3, `Cc1ccc(-c2oc3ccc(Cl)cc3c(=O)c2Cl)c(OC(C)C)c1` displayed a Ki of 3310 nM. This counts as single-digit micromolar.

On to `CCOC(=O)C1=C(c2ccccc2)N=C(C)C(C(=O)OCC)C1/C=C/c1ccccc1` (stereo unspecified), for which the Ki is 3430 nM at Adenosine receptor A1 and 990 nM on Adenosine receptor A3. `CC(C=C[C@@]1(O)C(C)=CC(=O)CC1(C)C)=CC(=O)O` [CAS_14375-45-2] displayed a Ki on Adenosine receptor A3 of 56.1 nM. This lies in the double-digit nanomolar range.

The molecule `CNC(=O)[C@H]1O[C@@H](n2cnc3c(NCc4cccc(I)c4)nc(Cl)nc32)[C@H](O)[C@@H]1O` [2-Cl-IB-MECA] registered a Ki at Adenosine receptor A1 of 74 nM. Take `Nc1ncnc2c1ncn2[C@@H]1O[C@H](C(=O)NCc2ccccc2)[C@@H](O)[C@H]1O` [B-NECA]: the results for the Ki at Adenosine receptor A1 and at Adenosine receptor A3 were 6.83 nM and 6.79 nM, respectively. In the same order, the values of `OCC1OC(n2cnc3c(NC4CCCC4)nc(Cl)nc32)C(O)C1O` (stereo unspecified) [2-(2-Chloro-6-cyclopentylamino-purin-9-yl)-5-hydroxymethyl-tetrahydro-furan-3,4-diol] are 4.01 nM and 6.82 nM. Taken in the same sequence, the figures for `CNC(=O)C1OC(n2cnc3c(NCc4cccc(I)c4)ncnc32)C(O)C1O` (stereo unspecified) [3,4-dihydroxy-5-(6-{[(3-iodophenyl)methyl]amino}-9H-purin-9-yl)-N-methyloxolane-2-carboxamide] were 16.3 nM and 2.8 nM. Taken in the same sequence, the figures for `OC[C@H]1O[C@@H](n2cnc3c(NC4CCCCC4)ncnc32)[C@H](O)[C@@H]1O` [CHA] were 1.66 nM and 17.1 nM. Regarding `CCNC(=O)[C@H]1O[C@@H](n2cnc3c(N)ncnc32)[C@H](O)[C@@H]1O`, the Ki was determined as 23.4 nM on Adenosine receptor A1 and 37.1 nM at Adenosine receptor A3.

Regarding `CCCn1c(=O)c2[nH]c(-c3ccc(C=CC(=O)O)cc3)nc2n(CCC)c1=O` [NSC_129447], the Ki came to 167 nM at Adenosine receptor A1 and 36.6 nM on Adenosine receptor A3.

As to `CC(Cc1ccccc1)Nc1ncnc2c1ncn2C1OC(CO)C(O)C1O` (stereo unspecified) [R-N6-(2-phenylisopropyl) adenosine], the Ki at Adenosine receptor A1 was found to be 0.72 nM; on Adenosine receptor A3 it was 1.13 nM.

The values are drawn from BindingDB's records for doi:10.1007/s002100000340 (University of Illinois At Chicago, 2001).
